Assay results taken from publication PMC9855884, “Glycosylated Lipopeptides—Synthesis and Evaluation of Antimicrobial Activity and Cytotoxicity” (Biomolecules, 2023).
≈ marks a conversion by molar mass, not a printed value. Where a SMILES comes first, the peptide text is derived from it. The star is where a group is joined. βGlcNAc = CC(=O)N[C@@H]1[C@@H](O)[C@H](O)[C@@H](CO)O[C@H]1*; Palmitoyl = CCCCCCCCCCCCCCCC(=O)*; Myristoyl = CCCCCCCCCCCCCC(=O)*

Tests used:
E. faecium ATCC 700221 = type: cell-based, Enterococcus faecium; conditions: ATCC 700221, 18 h
Procedure: (§1) The Acinetobacter baumannii ATCC BAA-1605, Enterococcus faecium ATCC 700221, Klebsiella aerogenes ATCC 13048, Klebsiella pneumoniae ATCC 700603, Pseudomonas aeruginosa ATCC 9027, Staphylococcus aureus ATCC 33591, Candida glabrata ATCC 15126, strains were acquired from the American Type Culture Collection (ATCC). All the strains were stored at −80 °C in Roti-Store cryo vials and were transferred into fresh Mueller–Hinton broth (MHB, Becton Dickinson, Warsaw, Poland) for bacteria or RPMI-1640 (Sigma-Aldrich, Steinheim, Germany) for fungi before the tests and incubated for 24 h at 37 °C. Then, the cultures were seeded on the Mueller–Hinton agar (BioMaxima, Lublin, Poland) or Sabouraud dextrose agar (SDA, BioMaxima, Lublin, Poland) plates, respectively, and incubated as just mentioned. These agar cultures were used for further microbiological assays. Cell densities for all assays were adjusted spectrophotometrically (Multiskan GO Microplate Spectrophotometer, Thermo Fisher Scientific, Vantaa, Finland) at 600 and 530 nm for bacteria and fungi, respectively.
(§2) The MICs were determined using a broth microdilution method according to the Clinical and Laboratory Standard Institute guidelines. For this purpose, initial inoculums of bacteria (5 × 10^5 CFU/mL) in MHB and yeasts (2 × 10^3 CFU/mL) in RPMI-1640 with 2% D-glucose were exposed to the ranging concentration of lipopeptides (1–512 μg/mL) and incubated at 37 °C for 18 h and 24 h, respectively. The experiments were conducted on 96-well microtiter polystyrene plates (Kartell, Italy). The growth was assessed visually after incubation and the MIC was assumed as the lowest peptide concentration at which a noticeable growth of microorganisms was inhibited. All experiments were conducted in triplicate.

C. glabrata ATCC 15126 = type: cell-based, Candida glabrata; conditions: ATCC 15126, 24 h
Procedure: as §1, §2

[1] = Determination of peptide hydrophobicity with RP-HPLC (adjusted retention time); type: physicochemical; conditions: RP-HPLC as measure of hydrophobicity; Waters X-Bridge Shield RP-18 3.0 × 100 mm, 3.5 μm; linear 20–80% acetonitrile in water over 30 min, 0.1% TFA; 0.5 mL/min; 25.0 °C; peptide 1 g/L in water (0.1% TFA); UV 214 nm; triplicate
Procedure: To determine peptide hydrophobicity, a Waters Alliance e2695 system with a Waters 2998 PDA Detector was used. All analyses were carried out on a Waters X-Bridge Shield RP-18 column (3.0 × 100 mm, 3.5 μm particle size, 130 Å pore size). The peptides were dissolved in water (0.1% TFA, v/v) up to a concentration of 1 g/L. UV detection at 214 nm was used, and samples (10 μL) were eluted with a linear 20–80% acetonitrile gradient in deionized water over 30 min at 25.0 ± 0.1 °C. The mobile phase flow rate was 0.5 mL/min. Both eluents contained 0.1% (v/v) of TFA. Each peptide sample was analyzed in triplicate. Maximum standard deviation and coefficient of variation were 0.046 and 0.23%, respectively.
After synthesis and purification, all the products were analyzed with MS and HPLC to confirm purity and identity of the compounds. […] The chromatographic analyses were performed with RP-HPLC; retention time refers to hydrophobicity of the lipopeptide.

P. aeruginosa ATCC 9027 = type: cell-based, Pseudomonas aeruginosa; conditions: ATCC 9027, 18 h
Procedure: as §1, §2

S. aureus ATCC 33591 = type: cell-based, Staphylococcus aureus; conditions: ATCC 33591, 18 h
Procedure: as §1, §2

Structure (SMILES) | MIC (E. faecium ATCC 700221) | MIC (C. glabrata ATCC 15126) | Adjusted Retention Time [1] | MIC (P. aeruginosa ATCC 9027) | MIC (S. aureus ATCC 33591)
CCCCCCCCCCCCCC(=O)N[C@@H](CCCNC(=N)N)C(=O)N[C@@H](CO)C(=O)N[C@@H](CCCNC(=N)N)C(N)=O [Peptide 2, C14-RSR-NH2] (Myristoyl-Arg-Ser-Arg-NH2) | 8 µg/mL (≈ 12.8 µM) | 32 µg/mL (≈ 51 µM) | 15.96 min | 64 µg/mL (≈ 102 µM) | 8 µg/mL (≈ 12.8 µM)
CCCCCCCCCCCCCC(=O)N[C@@H](CCCNC(=N)N)C(=O)N[C@@H](CCCNC(=N)N)C(=O)N[C@@H](CO)C(N)=O [Peptide 3, C14-RRS-NH2] (Myristoyl-Arg-Arg-Ser-NH2) | 8 µg/mL (≈ 12.8 µM) | 32 µg/mL (≈ 51 µM) | 15.91 min | 64 µg/mL (≈ 102 µM) | 16 µg/mL (≈ 25.5 µM)
CCCCCCCCCCCCCCCC(=O)N[C@@H](CO)C(=O)N[C@@H](CCCNC(=N)N)C(=O)N[C@@H](CCCNC(=N)N)C(N)=O [Peptide 4, C16-SRR-NH2] (Palmitoyl-Ser-Arg-Arg-NH2) | 8 µg/mL (≈ 12.2 µM) | 4 µg/mL (≈ 6.11 µM) | 20.55 min | 16 µg/mL (≈ 24.4 µM) | 8 µg/mL (≈ 12.2 µM)
CCCCCCCCCCCCCCCC(=O)N[C@@H](CCCNC(=N)N)C(=O)N[C@@H](CO)C(=O)N[C@@H](CCCNC(=N)N)C(N)=O [Peptide 5, C16-RSR-NH2] (Palmitoyl-Arg-Ser-Arg-NH2) | 8 µg/mL (≈ 12.2 µM) | 8 µg/mL (≈ 12.2 µM) | 19.93 min | 64 µg/mL (≈ 97.7 µM) | 8 µg/mL (≈ 12.2 µM)
CCCCCCCCCCCCCCCC(=O)N[C@@H](CCCNC(=N)N)C(=O)N[C@@H](CCCNC(=N)N)C(=O)N[C@@H](CO)C(N)=O [Peptide 6, C16-RRS-NH2] (Palmitoyl-Arg-Arg-Ser-NH2) | 8 µg/mL (≈ 12.2 µM) | 8 µg/mL (≈ 12.2 µM) | 19.89 min | 16 µg/mL (≈ 24.4 µM) | 8 µg/mL (≈ 12.2 µM)
CCCCCCCCCCCCCC(=O)N[C@@H](CO[C@@H]1O[C@H](CO)[C@@H](O)[C@H](O)[C@H]1NC(C)=O)C(=O)N[C@@H](CCCNC(=N)N)C(=O)N[C@@H](CCCNC(=N)N)C(N)=O [Peptide 10, C14-S(GlcNAc)RR-NH2] (Myristoyl-Ser(βGlcNAc)-Arg-Arg-NH2) | 32 µg/mL (≈ 38.6 µM) | 256 µg/mL (≈ 308 µM) | 14.47 min | 256 µg/mL (≈ 308 µM) | 64 µg/mL (≈ 77.1 µM)
CCCCCCCCCCCCCC(=O)N[C@@H](CCCNC(=N)N)C(=O)N[C@@H](CO[C@@H]1O[C@H](CO)[C@@H](O)[C@H](O)[C@H]1NC(C)=O)C(=O)N[C@@H](CCCNC(=N)N)C(N)=O [Peptide 11, C14-RS(GlcNAc)R-NH2] (Myristoyl-Arg-Ser(βGlcNAc)-Arg-NH2) | 32 µg/mL (≈ 38.6 µM) | 128 µg/mL (≈ 154 µM) | 14.82 min | 128 µg/mL (≈ 154 µM) | 64 µg/mL (≈ 77.1 µM)
CCCCCCCCCCCCCC(=O)N[C@@H](CCCNC(=N)N)C(=O)N[C@@H](CCCNC(=N)N)C(=O)N[C@@H](CO[C@@H]1O[C@H](CO)[C@@H](O)[C@H](O)[C@H]1NC(C)=O)C(N)=O [Peptide 12, C14-RRS(GlcNAc)-NH2] (Myristoyl-Arg-Arg-Ser(βGlcNAc)-NH2) | 16 µg/mL (≈ 19.3 µM) | 128 µg/mL (≈ 154 µM) | 15.01 min | 256 µg/mL (≈ 308 µM) | 32 µg/mL (≈ 38.6 µM)
CCCCCCCCCCCCCCCC(=O)N[C@@H](CO[C@@H]1O[C@H](CO)[C@@H](O)[C@H](O)[C@H]1NC(C)=O)C(=O)N[C@@H](CCCNC(=N)N)C(=O)N[C@@H](CCCNC(=N)N)C(N)=O [Peptide 13, C16-S(GlcNAc)RR-NH2] (Palmitoyl-Ser(βGlcNAc)-Arg-Arg-NH2) | 16 µg/mL (≈ 18.6 µM) | 32 µg/mL (≈ 37.3 µM) | 18.26 min | 32 µg/mL (≈ 37.3 µM) | 16 µg/mL (≈ 18.6 µM)
